Source: article PMC9503132, “Development of Halogenated-Chalcones Bearing with Dimethoxy Phenyl Head as Monoamine Oxidase-B Inhibitors” (Pharmaceuticals, 2022)
Read-outs that look alike come from different tables or passages of the source.

How the values were obtained:
MAO-A = biological target: T1, MAO-A (Homo sapiens, UniProt P21397); test: MAO-A inhibition assay (recombinant enzyme, kynuramine substrate); type: biochemical; details: for remaining activity at 10 µM: read-out: Residual Activity at 10 µM (%) MAO-A
T1 construct: purchased Sigma-Aldrich
T1 sequence (P21397 1-527): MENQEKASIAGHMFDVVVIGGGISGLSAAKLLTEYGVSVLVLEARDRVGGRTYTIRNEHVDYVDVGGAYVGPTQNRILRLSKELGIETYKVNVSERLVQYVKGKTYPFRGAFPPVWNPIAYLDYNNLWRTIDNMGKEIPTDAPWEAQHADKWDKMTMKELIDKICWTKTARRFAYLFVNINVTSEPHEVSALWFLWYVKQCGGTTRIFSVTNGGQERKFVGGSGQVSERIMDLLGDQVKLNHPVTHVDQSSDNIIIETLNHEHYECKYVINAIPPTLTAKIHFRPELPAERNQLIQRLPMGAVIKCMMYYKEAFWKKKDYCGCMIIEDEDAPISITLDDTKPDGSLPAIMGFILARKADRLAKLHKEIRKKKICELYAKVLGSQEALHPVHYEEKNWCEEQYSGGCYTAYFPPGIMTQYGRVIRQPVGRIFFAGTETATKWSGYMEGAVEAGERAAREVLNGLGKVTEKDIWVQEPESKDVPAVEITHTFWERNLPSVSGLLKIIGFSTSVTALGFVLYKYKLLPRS
Experimental: (§1) Recombinant MAO-A and MAO-B were used to test the MAO inhibitory activity using the substrates kynuramine and benzylamine (0.06 mM and 0.3 mM, respectively). […] Chemicals were from Sigma-Aldrich.
(§2) MAO-A At 10 µM, compounds’ inhibitory effects on MAOs were initially recorded. […] The SI values of MAO-B were calculated by dividing the IC50 values for MAO-A and those for MAO-B. The MAO-B was used to study the kinetics of substances DM2 or DM18 at five different substrate concentrations. By using the LB plots and their secondary plots at three different inhibitor doses, the inhibition patterns were examined.

BChE = BChE (Equus caballus, UniProt P81908); test: biochemical; details: read-out: Residual activity at 10 µM (%) BChE
Experimental: (§3) The AChE and BChE inhibitory activities were measured by continuous colorimetric determination method, in the presence of 0.5 mM acetylthiocholine iodide (ACTI) and butyrylthiocholine iodide […]
(§4) POP, K LAB, Daejeon, Korea). After adding the substrate, 0.5 mM 5,5-dithiobis (2-nitrobenzoic acid) (DTNB) was added as the color development solution. The BACE-1 inhibitory activity was evaluated by β-secretase (BACE1) activity detection kit (Sigma-Aldrich, St. Louis, Mo, USA) using a fluorescence spectrometer (FS-2, Scinco, Seoul, Korea). […]

AChE = AChE (Electrophorus electricus, UniProt O42275); test: AChE inhibition (colorimetric, acetylthiocholine iodide); type: biochemical; details: read-out: Residual activity at 10 µM (%) AChE
Experimental: as §3
POP, K LAB, Daejeon, Korea). After adding the substrate, 0.5 mM 5,5-dithiobis (2-nitrobenzoic acid) (DTNB) was added as the color development solution. The BACE-1 inhibitory activity was evaluated by β-secretase (BACE1) activity detection kit (Sigma-Aldrich, St. Louis, Mo, USA) using a fluorescence spectrometer (FS-2, Scinco, Seoul, Korea).
64. […] A new and rapid colorimetric determination of acetylcholinesterase activity. Biochem. Pharmacol. 7, 88-95. […]

MAO-B = biological target: T2, MAO-B (Homo sapiens, UniProt P27338); test: MAO-B inhibition assay (recombinant enzyme, benzylamine substrate); type: biochemical; details: for remaining activity at 10 µM: read-out: Residual Activity at 10 µM (%) MAO-B
T2 construct: purchased Sigma-Aldrich
T2 sequence (P27338 1-520): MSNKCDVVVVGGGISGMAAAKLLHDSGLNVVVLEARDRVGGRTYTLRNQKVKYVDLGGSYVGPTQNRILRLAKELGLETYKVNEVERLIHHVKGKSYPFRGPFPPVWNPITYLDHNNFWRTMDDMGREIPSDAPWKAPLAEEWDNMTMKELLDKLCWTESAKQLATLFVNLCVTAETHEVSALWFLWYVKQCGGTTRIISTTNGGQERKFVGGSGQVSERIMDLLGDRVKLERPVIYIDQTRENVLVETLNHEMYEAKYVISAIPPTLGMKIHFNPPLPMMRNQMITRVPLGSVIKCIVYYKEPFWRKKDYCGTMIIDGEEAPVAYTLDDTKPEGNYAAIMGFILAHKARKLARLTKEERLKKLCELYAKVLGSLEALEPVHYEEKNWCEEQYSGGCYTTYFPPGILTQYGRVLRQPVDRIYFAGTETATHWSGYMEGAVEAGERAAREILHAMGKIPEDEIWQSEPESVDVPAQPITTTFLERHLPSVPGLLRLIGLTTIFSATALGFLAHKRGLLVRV
Experimental: as §1, §2

BACE-1 = biological target: T3, BACE-1 (Homo sapiens, UniProt P56817); test: BACE-1 inhibition (β-secretase activity detection kit); type: biochemical; details: read-out: Residual activity at 10 µM (%) BACE-1
T3 construct: purchased Sigma-Aldrich
Experimental: as §3, §4

[1] = IC50 MAO-A divided by IC50 MAO-B
[2] = 10 µM compound, recombinant MAO-A, kynuramine 0.06 mM
[3] = recombinant MAO-A, kynuramine 0.06 mM, read-out: IC50 (µM) MAO-A
[4] = 10 µM compound, recombinant MAO-B, benzylamine 0.3 mM
[5] = recombinant MAO-B, benzylamine 0.3 mM, read-out: IC50 (µM) MAO-B

T3 sequence (P56817 46-501): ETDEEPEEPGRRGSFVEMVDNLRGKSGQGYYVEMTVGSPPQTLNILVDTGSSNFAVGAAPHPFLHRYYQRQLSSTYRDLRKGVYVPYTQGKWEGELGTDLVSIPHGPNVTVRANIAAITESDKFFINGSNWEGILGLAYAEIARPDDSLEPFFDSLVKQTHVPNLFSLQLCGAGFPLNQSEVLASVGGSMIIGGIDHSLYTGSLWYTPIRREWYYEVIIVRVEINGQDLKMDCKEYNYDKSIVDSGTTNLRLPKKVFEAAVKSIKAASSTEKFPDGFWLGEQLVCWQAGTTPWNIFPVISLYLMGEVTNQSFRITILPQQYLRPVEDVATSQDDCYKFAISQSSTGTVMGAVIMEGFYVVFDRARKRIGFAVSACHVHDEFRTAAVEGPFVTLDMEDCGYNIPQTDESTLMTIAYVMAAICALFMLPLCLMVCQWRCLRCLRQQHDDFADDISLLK
AChE, sequence (O42275 24-633): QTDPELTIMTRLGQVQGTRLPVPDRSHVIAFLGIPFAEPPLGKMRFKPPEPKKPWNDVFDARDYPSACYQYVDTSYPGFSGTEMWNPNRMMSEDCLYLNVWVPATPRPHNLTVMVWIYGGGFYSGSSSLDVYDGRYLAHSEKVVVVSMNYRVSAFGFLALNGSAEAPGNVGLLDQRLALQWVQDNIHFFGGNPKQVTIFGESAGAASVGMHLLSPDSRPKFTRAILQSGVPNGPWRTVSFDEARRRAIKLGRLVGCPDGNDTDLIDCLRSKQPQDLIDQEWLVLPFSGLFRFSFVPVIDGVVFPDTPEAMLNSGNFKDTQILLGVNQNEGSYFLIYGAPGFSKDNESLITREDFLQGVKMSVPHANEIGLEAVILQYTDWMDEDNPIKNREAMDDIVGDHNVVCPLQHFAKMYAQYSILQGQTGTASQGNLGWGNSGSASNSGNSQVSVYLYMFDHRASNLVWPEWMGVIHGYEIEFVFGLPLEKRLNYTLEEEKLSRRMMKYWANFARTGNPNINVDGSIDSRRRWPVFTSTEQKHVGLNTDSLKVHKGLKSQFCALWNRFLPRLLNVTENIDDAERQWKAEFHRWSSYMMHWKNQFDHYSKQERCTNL
BChE, sequence (P81908 whole entry): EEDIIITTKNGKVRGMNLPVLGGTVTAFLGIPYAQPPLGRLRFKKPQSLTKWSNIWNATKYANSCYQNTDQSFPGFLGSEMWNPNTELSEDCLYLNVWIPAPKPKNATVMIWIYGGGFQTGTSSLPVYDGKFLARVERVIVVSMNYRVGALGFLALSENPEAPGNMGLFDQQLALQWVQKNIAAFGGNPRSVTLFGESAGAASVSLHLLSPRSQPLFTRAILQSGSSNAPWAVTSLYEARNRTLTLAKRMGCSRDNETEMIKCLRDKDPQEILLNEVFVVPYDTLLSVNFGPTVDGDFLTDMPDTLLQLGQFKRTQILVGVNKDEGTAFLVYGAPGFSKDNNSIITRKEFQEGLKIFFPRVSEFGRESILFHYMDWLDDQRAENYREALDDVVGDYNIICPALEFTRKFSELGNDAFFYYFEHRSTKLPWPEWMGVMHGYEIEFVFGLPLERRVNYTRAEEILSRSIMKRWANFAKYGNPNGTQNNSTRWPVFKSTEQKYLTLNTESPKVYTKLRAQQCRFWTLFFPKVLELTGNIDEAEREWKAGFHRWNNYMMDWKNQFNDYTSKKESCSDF

Row | Structure (SMILES) | IC50 (MAO-A) | remaining activity at 10 µM (MAO-A) | remaining activity at 10 µM (BChE) | remaining activity at 10 µM (AChE) | IC50 (MAO-B) | SI (selectivity index for MAO-B as compared to MAO-A) (MAO-B; [1]) | remaining activity at 10 µM (MAO-B) | remaining activity at 10 µM (BACE-1) | remaining activity at 10 µM (MAO-A; [2]) | IC50 (MAO-A; [3]) | remaining activity at 10 µM (MAO-B; [4]) | IC50 (MAO-B; [5]) | remaining activity at 10 µM (BACE-1; 10 µM compound) | SI (selectivity index for MAO-B as compared to MAO-A) (MAO-B)
1 | COc1ccc(C(=O)/C=C/c2ccccc2)c(OC)c1 [DM1] | 15.4 ± 1.97 µM | 57.2 ± 1.91% | 93.21 ± 0.3% | 75.6 ± 2.35% | 0.927 ± 0.021 µM | 16.61 | 17.6 ± 0.74% | 92.67 ± 0.26% |  |  |  |  |  | 
2 | COc1ccc(C(=O)/C=C/c2cccc(Cl)c2)c(OC)c1 [DM3] |  |  | 69.87 ± 0.19% | 81.5 ± 4.09% |  | 44.08 |  |  | 43.3 ± 1.2% | 5.73 ± 0.142 µM | 7.89 ± 0.63% | 0.13 ± 0.023 µM | 99.67 ± 0.53% | 
3 | COc1ccc(C(=O)/C=C/c2ccc(Cl)cc2)c(OC)c1 [DM4] | 4.48 ± 0.152 µM | 38.8 ± 3.4% | 80.1 ± 1.59% | 74.2 ± 2.43% | 0.589 ± 0.055 µM | 7.61 | 18.6 ± 1.04% | 90.82 ± 0.09% |  |  |  |  |  | 
4 | COc1ccc(C(=O)/C=C/c2ccccc2Br)c(OC)c1 [DM5] |  |  | 60.54 ± 0.03% | 71.2 ± 6.12% |  | 77.02 |  |  | 54.5 ± 4.32% | 12.4 ± 0.872 µM | 10.6 ± 1.88% | 0.161 ± 0.02 µM | 87.8 ± 0.29% | 
5 | COc1ccc(C(=O)/C=C/c2cccc(Br)c2)c(OC)c1 [DM6] |  |  | 79.7 ± 1.1% | 73 ± 0.75% |  | 86.49 |  |  | 62.7 ± 1.32% | 12.8 ± 1.57 µM | 5.5 ± 0.64% | 0.148 ± 0.087 µM | 88.53 ± 0.22% | 
6 | COc1ccc(C(=O)/C=C/c2ccc(Br)cc2)c(OC)c1 [DM7] |  |  | 98.2 ± 1.01% | 87.2 ± 1.19% |  | 5.60 |  |  | 40.3 ± 1.05% | 4.733 ± 0.005 µM | 15.6 ± 1.78% | 0.844 ± 0.023 µM | 97.29 ± 0.34% | 
7 | COc1ccc(C(=O)/C=C/c2ccccc2F)c(OC)c1 [DM8] |  |  | 85.42 ± 0.67% | 82.7 ± 10.4% |  | 11.90 |  |  | 56.4 ± 7.34% | 13.4 ± 0.82 µM | 11.1 ± 1.44% | 1.13 ± 0.033 µM | 91.01 ± 0.06% | 
8 | COc1ccc(C(=O)/C=C/c2cccc(F)c2)c(OC)c1 [DM9] |  |  | 72.5 ± 3.69% | 71.9 ± 3.06% |  | 45.93 |  |  | 50.6 ± 0.82% | 11.3 ± 1.06 µM | 10.8 ± 0.23% | 0.246 ± 0.074 µM | 88.2 ± 0.28% | 
9 | COc1ccc(C(=O)/C=C/c2ccc(F)cc2)c(OC)c1 [DM10] |  |  | 92.84 ± 0.51% | 64.3 ± 6.85% |  | 8.14 |  |  | 53.9 ± 7.17% | 16 ± 1.47 µM | 23.2 ± 0.37% | 1.96 ± 0.065 µM | 87.13 ± 0.42% | 
10 | COc1ccc(C(=O)/C=C/c2ccccc2)cc1OC [DM11] |  |  | 80.5 ± 1.36% | 80.3 ± 5.21% |  | 6.54 |  |  | 64.6 ± 0.72% | 14.3 ± 1.83 µM | 14.6 ± 3.48% | 2.19 ± 0.098 µM | 97.5 ± 1.02% | 
11 | COc1ccc(C(=O)/C=C/c2ccccc2Cl)cc1OC [DM12] |  |  | 63.5 ± 1.47% | 68.5 ± 2.87% |  | >32.65 |  |  | 88.7 ± 9.4% | > 40 µM | 8.98 ± 0.92% | 1.23 ± 0.25 µM | 94.3 ± 1.06% | 
12 | COc1ccc(C(=O)/C=C/c2cccc(Cl)c2)cc1OC [DM13] |  |  | 100 ± 7.32% | 95 ± 3.4% |  | >8.51 |  |  | 75.6 ± 0.88% | > 40 µM | 7.49 ± 0.12% | 4.7 ± 0.32 µM | 99.86 ± 0.28% | 
13 | COc1ccc(C(=O)/C=C/c2ccc(Cl)cc2)cc1OC [DM14] |  |  | 76.5 ± 1.37% | 97.6 ± 3.42% |  | >48.02 |  |  | 98.8 ± 1.77% | > 40 µM | 9.45 ± 2.88% | 0.833 ± 0.087 µM | 99.83 ± 0.81% | 
14 | COc1ccc(C(=O)/C=C/c2ccccc2Br)cc1OC [DM15] |  |  | 55.2 ± 1.01% | 83.9 ± 4.91% |  | >55.87 |  |  | 77.5 ± 7.07% | > 40 µM | 10.2 ± 0.17% | 0.716 ± 0.056 µM | 99.54 ± 0.24% | 
15 | COc1ccc(C(=O)/C=C/c2cccc(Br)c2)cc1OC [DM16] |  |  | 91.2 ± 1.43% | 82.7 ± 9.21% |  | >35.94 |  |  | 76.9 ± 0.88% | > 40 µM | 11.8 ± 5.27% | 1.11 ± 0.26 µM | 99.74 ± 0.04% | 
16 | COc1ccc(C(=O)/C=C/c2ccc(Br)cc2)cc1OC [DM17] |  |  | 68.9 ± 1.57% | 81.8 ± 6.31% |  | >273.97 |  |  | 96.88 ± 0.88% | > 40 µM | 13.8 ± 0.61% | 0.146 ± 0.041 µM | 100.03 ± 0.04% | 
17 | COc1ccc(C(=O)/C=C/c2cccc(F)c2)cc1OC [DM19] |  |  | 103 ± 8.13% | 70 ± 2.02% |  | >88.89 |  |  | 93.7 ± 7.16% | > 40 µM | 3.94 ± 1.76% | 0.45 ± 0.071 µM | 99.86 ± 0.12% | 
18 | COc1ccc(C(=O)/C=C/c2ccc(F)cc2)cc1OC [DM20] |  |  | 93.1 ± 6.5% | 86.98 ± 0.45% |  |  |  |  | 97.5 ± 8.95% | > 40 µM | 3.7% | 0.483 ± 0.077 µM | 99.89 ± 0.08% | >83.82
